The structures appear in SMILES notation. Several values for one entry are separate records, joined by “and”; a condition that tells them apart may be missing. Identical values can stand only once. Activity calls are given as the source filed them. Some results are limits rather than exact numbers.

Among the targets are Cytochrome P450 2D6 (Homo sapiens, UniProt P10635); Cytochrome P450 2C9 (Homo sapiens, UniProt P11712); Cytochrome P450 3A4 (Homo sapiens, UniProt P08684).
In experiment [1] the target is FAD-linked sulfhydryl oxidase ALR (Homo sapiens, UniProt P55789). Kind of experiment: inhibitors of human ALR sulfhydryl oxidase, dose response, biochemical, H2O2 detection, luminescence, cherry-pick (AID 493248).
Sequence of FAD-linked sulfhydryl oxidase ALR (P55789 whole entry): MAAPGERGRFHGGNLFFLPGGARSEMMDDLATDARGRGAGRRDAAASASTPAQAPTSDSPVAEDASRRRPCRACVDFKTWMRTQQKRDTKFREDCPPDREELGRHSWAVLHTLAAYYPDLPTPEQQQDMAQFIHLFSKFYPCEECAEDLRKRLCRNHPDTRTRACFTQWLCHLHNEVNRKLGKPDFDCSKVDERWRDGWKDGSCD
The target in the next experiment is T1, Cytochrome P450 1A2 (Homo sapiens, UniProt P05177).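 Also: PubChem cytochrome P450 panel assay, CYP1A2 panel member.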
T1 sequence (P05177 whole entry): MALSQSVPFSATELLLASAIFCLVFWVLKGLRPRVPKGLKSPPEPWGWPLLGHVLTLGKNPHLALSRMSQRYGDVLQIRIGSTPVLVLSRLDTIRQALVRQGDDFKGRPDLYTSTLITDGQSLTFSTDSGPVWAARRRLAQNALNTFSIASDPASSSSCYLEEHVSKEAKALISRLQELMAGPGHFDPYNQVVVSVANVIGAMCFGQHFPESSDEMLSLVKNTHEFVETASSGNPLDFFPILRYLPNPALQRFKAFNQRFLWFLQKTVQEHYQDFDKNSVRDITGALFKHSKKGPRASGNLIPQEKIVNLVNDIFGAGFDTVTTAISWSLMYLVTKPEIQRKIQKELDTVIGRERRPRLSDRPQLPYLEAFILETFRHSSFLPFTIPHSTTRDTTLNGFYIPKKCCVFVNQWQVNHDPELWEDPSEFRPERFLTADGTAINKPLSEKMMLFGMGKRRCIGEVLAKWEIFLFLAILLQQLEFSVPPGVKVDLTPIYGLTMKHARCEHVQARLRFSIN

A short description of experiment [2]: HEp-2 cell cytotoxicity, dose response, cytotoxicity control for RSV inhibitor project, HTS (AID 2410). It counts as functional. The settings on record: human respiratory syncytial virus.
Experiment [3] in a line: inhibitors of firefly luciferase expression or activity, dose response, H4 neuroglioma cells, luminescence (AID 1990). It counts as functional, cell-based.
A short description of experiment [4]: Luminescence Cell-Based Dose Response HTS to Identify Inhibitors of 5'UTR Stem-Loop Driven Prion Protein mRNA Translation in H4 Neuroglioblastoma Cells. [Related pubchem assays: 1827 (Project Summary), 1813 (Primary HTS)]. The format is functional.
The nature of experiment [5]: inhibitors of SNCA 5'UTR-driven reporter translation, confirmation, H4 neuroglioma cells, luminescence (AID 1988). It counts as functional, cell-based.
A short description of experiment [6]: Luminescence Cell-Based Dose Confirmation HTS to Identify Activators of 5'UTR Stem-Loop Driven Alpha-Synuclein mRNA Translation in H4 Neuroglioblastoma Cells. [Related pubchem assays: 1829 (Project Summary), 1814 (Primary HTS)]. It counts as functional.
For another experiment, the system named is H4. Kind of experiment: Luminescence Cell-Based Dose Response HTS to Identify Activators of 5'UTR Stem-Loop Driven Prion Protein mRNA Translation in H4 Neuroglioblastoma Cells. [Related pubchem assays: 1829 (Project Summary), 1814 (Primary HTS)]. The format is functional. The settings on record: Homo sapiens.
Experiment [7] is described as follows: Luminescence Cell-Based Dose Response HTS to Identify Activators of Luciferase Translation or Activity in H4 […] Cells. [Related pubchem assays: 1829 (Project Summary), 1814 (Primary HTS)]. It counts as functional.
Experiment [8] in a line: Luminescence Cell-Based Dose Retest to Confirm Inhibitors of Cancer Stem Cells. [Related pubchem assays (depositor defined):AID2717, AID2721]. It counts as functional. To be noted: Homo sapiens.
In another experiment the test system is INS1. Kind of experiment: beta cell apoptosis inhibitors, cytokine rescue, dose response, luminescence, retest (AID 449756).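 Also: cell death triggered by IL-1 beta plus TNF-alpha plus IFN-gamma mixture; protective hits raise ATP signal compared with cytokine alone wells.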 It counts as functional, cell-based. To be noted: Rattus norvegicus.

Sequence of Cytochrome P450 2C9 (P11712 whole entry): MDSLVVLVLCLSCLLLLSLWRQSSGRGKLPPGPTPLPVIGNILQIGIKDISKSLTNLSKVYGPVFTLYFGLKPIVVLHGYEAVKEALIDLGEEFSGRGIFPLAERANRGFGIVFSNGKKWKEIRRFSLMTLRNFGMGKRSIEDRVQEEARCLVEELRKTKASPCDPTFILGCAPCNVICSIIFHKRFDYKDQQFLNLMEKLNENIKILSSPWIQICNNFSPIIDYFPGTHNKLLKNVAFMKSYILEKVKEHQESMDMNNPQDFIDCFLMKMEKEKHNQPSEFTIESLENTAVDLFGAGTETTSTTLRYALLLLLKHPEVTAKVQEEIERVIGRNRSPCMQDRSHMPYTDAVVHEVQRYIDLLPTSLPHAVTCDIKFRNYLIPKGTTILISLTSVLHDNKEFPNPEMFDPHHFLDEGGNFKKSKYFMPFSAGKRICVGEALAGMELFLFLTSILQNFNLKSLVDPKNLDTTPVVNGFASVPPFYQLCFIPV
Sequence of Cytochrome P450 2D6 (P10635 whole entry): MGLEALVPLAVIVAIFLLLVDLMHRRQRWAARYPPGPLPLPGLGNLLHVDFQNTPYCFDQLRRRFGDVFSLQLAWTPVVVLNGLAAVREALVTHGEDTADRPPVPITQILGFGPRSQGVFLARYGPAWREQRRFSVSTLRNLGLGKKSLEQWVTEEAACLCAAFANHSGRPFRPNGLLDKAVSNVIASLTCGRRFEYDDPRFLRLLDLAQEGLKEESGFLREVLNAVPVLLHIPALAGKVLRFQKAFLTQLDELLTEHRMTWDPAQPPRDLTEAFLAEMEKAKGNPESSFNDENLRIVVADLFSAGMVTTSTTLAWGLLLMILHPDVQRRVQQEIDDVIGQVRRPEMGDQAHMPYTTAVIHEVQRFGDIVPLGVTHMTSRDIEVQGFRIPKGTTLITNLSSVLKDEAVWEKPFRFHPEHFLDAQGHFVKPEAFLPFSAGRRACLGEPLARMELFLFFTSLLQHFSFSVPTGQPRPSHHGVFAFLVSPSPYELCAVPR
Sequence of Cytochrome P450 3A4 (P08684 whole entry): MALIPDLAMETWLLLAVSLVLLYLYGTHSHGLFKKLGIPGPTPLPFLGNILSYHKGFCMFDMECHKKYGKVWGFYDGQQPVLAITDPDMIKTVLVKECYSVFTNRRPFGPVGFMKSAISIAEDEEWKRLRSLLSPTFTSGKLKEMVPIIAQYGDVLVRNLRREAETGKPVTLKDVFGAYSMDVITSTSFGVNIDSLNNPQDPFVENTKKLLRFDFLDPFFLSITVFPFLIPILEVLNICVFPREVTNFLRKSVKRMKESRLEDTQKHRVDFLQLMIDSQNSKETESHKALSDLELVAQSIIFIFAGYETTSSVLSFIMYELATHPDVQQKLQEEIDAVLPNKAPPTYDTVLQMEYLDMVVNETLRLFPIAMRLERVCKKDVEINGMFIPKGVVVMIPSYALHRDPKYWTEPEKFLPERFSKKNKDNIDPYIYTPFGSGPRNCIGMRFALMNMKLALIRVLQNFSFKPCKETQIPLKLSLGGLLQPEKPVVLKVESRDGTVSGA

In the case of `CC(C)=NNc1nc(-c2ccc(N3C(=O)CCC3=O)cc2)cs1`, the AC50 in experiment [1] is 119 nM (active).
As to `Cc1cccc(NC(=O)CSc2nc(COc3ccccc3)nc3ccccc23)c1C`, the AC50 at Cytochrome P450 2D6 and at Cytochrome P450 1A2 was 12.6 µM (inconclusive) throughout.
For the compound `NC(=O)NNC1=Nc2cccc3cccc1c23`, the 50% cytotoxic concentration (CC50) in experiment [2] was > 50 µM (active).
Take `CCCN1C(=O)COc2ccc(-c3nnc(O)c4ccccc34)cc21`: the 50% effective concentration (EC50) in [3] is 22.7 µM (active); in experiment [4], > 120 µM (not active); in [5], 30.9 µM (active).
As for `O=C(CN1C(=O)NC2(CCCC2)C1=O)Nc1cc(Cl)ccc1N1CCCC1`, the AC50 in experiment [1] was 244 nM (active).
Same read-out and setting: for `COc1ccc(C(=O)N2CCN=C2SCc2cccnc2)c(OC)c1` the value was 67 nM (active).
With `Cc1cccc(NC(=O)c2cnc3sccn3c2=O)n1`, the EC50 was 0.125 µM (active) in experiment [6], 63.9 µM (active) in the experiment with H4 and 32.9 µM (active) in [7].
For the compound `CCn1nc([N+](=O)[O-])c2c(-c3nc4ccccc4o3)c(N)n(CCCOC)c2c1=O`, the EC50 in experiment [3], in [4] and in [5] was > 120 µM (not active) each time.
As for `O=C(CN1CCN(c2ccccc2O)CC1)NCCCc1ccccc1`, the AC50 in experiment [1] was 301 nM (active).
The same measure, in the same setting: with `CCCn1c(S)nnc1C(C)NC(=O)c1ccccc1` (stereo not drawn) the figure was 3000 nM (active).
As to `CCCSC1=C(C#N)C(c2cccnc2)C(C(=O)OCC)=C(c2ccccc2)N1` (stereo not drawn), the AC50 on Cytochrome P450 2D6 is 39.8 µM (inconclusive).
For the compound `Oc1c2nc3ccccc3c-2ncn1CCC1=CCCCC1`, the EC50 in [6] is 43.3 µM (active); in the experiment with H4, 1.72 µM (active); in experiment [7], 46.6 µM (active).
With `O=C(Nc1ccc(N2CCCCC2)cc1)C(Cl)c1ccccc1` (stereo not drawn), the EC50 was 12.8 µM (active) in the experiment with H4 and 0.125 µM (active) in [7].
For `O=C(Nc1ccc(Nc2ccccc2)cc1)c1ccco1`, the CC50 in experiment [2] was 45.1 µM (active). Further, the AC50 in experiment [1] is 5940 nM (active).
Consider `COc1ccc2c(c1)C(=O)CC(c1ccc3c(c1)OCCO3)O2` (stereo not drawn), for which the figures for the EC50 (in experiment [6]; with H4; in [7]) were 7.88 µM (active), 13.9 µM (active) and 42 µM (active), respectively.
In the case of `CCN(CC)CCNC(=O)C(C)c1nn(C)c(=O)c2ccccc12` (stereo not drawn), the half-maximal activity concentration (AC50) at Cytochrome P450 2D6 is 20 µM (inconclusive).
For `S=C(Nc1cc(Cl)cc(Cl)c1)NC1CCN(Cc2ccccc2)CC1`, the AC50 in experiment [8] is 5.23 µM (active). Further, the EC50 in experiment [3] is > 120 µM (not active); in experiment [4] it was > 120 µM (not active); in experiment [5] it was 11.4 µM (active).
`CC(=O)c1cnc(SCC(=O)O)nc1C`: the concentration for a half-maximal effect (EC50) in experiment [3], in [4] and in [5] was > 120 µM (not active) in each case.
Consider `O=C(O)c1nc2ccccc2nc1C(=O)O`, for which the EC50 in [6] is 11.1 µM (active); in the experiment with H4, > 120 µM (not active); in [7], 25.5 µM (active).
For the compound `COC(=O)C1CC1C(NC(=O)[C@H]1CCCCN1)c1ccccc1` (stereo partly drawn), the AC50 on Cytochrome P450 2D6 and on Cytochrome P450 2C9 was 20 µM (inconclusive) in each case.
In the case of `O=C(COC(=O)c1ccc2[nH]c3c(c2c1)CCCC3)Nc1ccccc1`, the EC50 in experiment [6] was 5.12 µM (active); in the experiment with H4 it was > 120 µM (not active); in experiment [7], 41.9 µM (active).
For the compound `CCCCSc1nc2c(c(=O)n1CC)SC(C)C2` (stereo not drawn), the figures for the EC50 in experiment [3], in [4] and in experiment [5] were 15.3 µM (active), > 60 µM (not active) and > 120 µM (not active), respectively.
On to `CC(Cc1ccccc1)C(=O)NCc1ccccn1` (stereo not drawn), for which the AC50 at Cytochrome P450 2D6 was 39.8 µM (inconclusive).
`COc1ccccc1CNc1nc(-c2cccnc2)nc2ccccc12`: the half-maximal activity concentration (AC50) at Cytochrome P450 2D6 is 25.1 µM (inconclusive); on Cytochrome P450 3A4, 1.26 µM (inconclusive).
`CCNC(=O)Nc1ccccc1C(=O)OC`: in experiment [2], the CC50 is 27.7 µM (active).
For the compound `Cn1c(-c2ccc3c(c2)OCO3)cnc1NCc1cccc(O)c1`, in experiment [1], the AC50 is 2490 nM (active).
Consider `O=C(Cn1c(=S)nc2ccccn21)N1CCc2ccccc2C1`, for which the values for the 50% effective concentration (EC50) (in [6]; in the experiment with H4; in [7]) were 5.67 µM (active), 10.3 µM (active) and 30.2 µM (active), respectively.
As for `C=CCn1c(S)nnc1C(C)NC(=O)c1cccc(C)c1` (stereo not drawn), the AC50 in experiment [1] was 4010 nM (active).
Consider `COc1cccc(N(C(=O)c2snc(C(N)=O)c2N)C(C(=O)NCc2ccccc2)c2ccc(O)cc2)c1` (stereo not drawn), for which the CC50 in experiment [2] is > 50 µM (active).
As to `COc1ccc(-c2[nH]nc(C)c2-c2ccccc2OC)c(O)c1`, in experiment [1], the AC50 was < 5 nM (active).
With `O=C(N/N=C\c1cccc(O)c1)c1ccncc1`, the AC50 at Cytochrome P450 2D6 is 3.16 µM (inconclusive).
As for `CSc1nnc2c(n1)OC(C)N(C(=O)c1ccccc1)c1ccccc1-2` (stereo not drawn), the figures for the EC50 (in [6]; with H4; in [7]) were 15.4 µM (active), > 120 µM (not active) and > 120 µM (not active), respectively. For the same compound, the AC50 is 31.6 µM (inconclusive) on Cytochrome P450 2C9 and 10 µM (inconclusive) at Cytochrome P450 1A2.
For the compound `CCn1nc(C)c(CN2CCc3c([nH]c4ccccc34)C2C(C)(C)C)c1C` (stereo not drawn), in experiment [2], the CC50 is > 50 µM (active).
In the case of `CCN(C(=O)COC(=O)/C=C/c1cnc2ccccc2n1)c1ccccc1`, the EC50 in [6] was > 120 µM (not active); in the experiment on H4 it was > 120 µM (not active); in experiment [7], 0.49 µM (active).
As for `Cn1c(C(=O)N2COCC2(C)C)cc2c(=O)n3ccccc3nc21`, the EC50 in [6] is 17.2 µM (active); in the experiment on H4 it was 61.7 µM (active); in experiment [7], 12 µM (active). Besides, on Cytochrome P450 2C9, the AC50 was 5.01 µM (inconclusive).
`O=C(Nc1ccc(N2CCOCC2)cc1)c1cc2c(s1)CCCC2`: the half-maximal cytotoxic concentration (CC50) in [2] is > 50 µM (active).
For the compound `COC(=O)C1=C(C)N(c2cc(C)cc(C)c2)/C(=C/c2ccc(O)cc2)C1=O`, in experiment [2], the CC50 was 18.4 µM (active).
With `CN(C)c1ccc(-c2cc([C@H]3[C@@H]4C=CCC[C@@]4(C)C(=O)N3Cc3ccccc3)ccc2F)cc1`, the AC50 in experiment [8] was 2.28 µM (active). The CC50 in experiment [2] is 13.1 µM (active).
On to `O=C1CC(NCCC2=CCCCC2)C(=O)N1c1cccc(Cl)c1Cl` (stereo not drawn), for which the AC50 on Cytochrome P450 2D6, on Cytochrome P450 3A4 and on Cytochrome P450 1A2 was 15.8 µM (inconclusive) each time.
For the compound `CC1CCC(NC(=O)c2cc3c(=O)n(C)c4ccccc4c3n2C)CC1` (stereo not drawn), the figures for the EC50 (in experiment [6]; in the experiment on H4; in experiment [7]) were 7.84 µM (active), > 120 µM (not active) and 14.3 µM (active), respectively.
Turning to `CCN(CCNC(=O)C1CCN(S(=O)(=O)c2cccc3nsnc23)CC1)c1ccccc1`, the AC50 in experiment [1] is 4690 nM (active).
With `CC1=NC(C)=C(C(=O)OCCNC(=O)c2ccccc2O)C(c2ccccc2[N+](=O)[O-])/C1=C(\O)OCC1CCCO1` (stereo not drawn), the AC50 in the experiment on INS1 was 40.6 µM (active). The EC50 is 17 µM (active) in [3], > 120 µM (not active) in experiment [4] and 78.4 µM (active) in experiment [5].
`Oc1c(/C=N/c2ccc(Cl)cn2)sc2ccccc12`: the 50% effective concentration (EC50) was 15.4 µM (active) in [6], 15.5 µM (active) with H4 and 12.3 µM (active) in experiment [7].
Regarding `CCOC(=O)C1=C(C)N=c2s/c(=C/c3ccc(OCC(=O)O)cc3)c(=O)n2C1c1ccc(F)cc1` (stereo not drawn), the 50% cytotoxic concentration (CC50) in experiment [2] is 39.8 µM (active).
Consider `C/C(=N\NC(=O)C12CCC(C)(C(=O)O1)C2(C)C)c1ccccc1O` (stereo not drawn), for which the EC50 was 13.1 µM (active) in experiment [3], 13.5 µM (active) in experiment [4] and > 120 µM (not active) in experiment [5].
For the compound `Cc1ccc(/C=c2/sc3n(c2=O)CCCN=3)o1`, the EC50 in the experiment with H4 was 11.8 µM (active); in experiment [7], 0.161 µM (active).
For the compound `CCN(CC)CCNC(=O)c1cc(Cl)c(N)cc1OC` [METOCLOPRAMIDE], the AC50 was 6.31 µM (inconclusive) and 15.8 µM (inconclusive) on Cytochrome P450 2D6; 15.8 µM (inconclusive) on Cytochrome P450 1A2.

What is called AC50 is the concentration giving half of the maximal activity seen. In general, CC50 refers to the concentration at which the toxic effect on the cells reaches its halfway point. The EC50 is the concentration at which the effect is half-maximal.

Values taken from ChEMBL document CHEMBL1201862, “PubChem BioAssay data set” (2004).
